Columns and labels:
[1] = system: 66.1 cancer cells in the bone; experiment: Bone cancer pain study (breast cancer cells implanted in femur); type: in vivo, mice
Description: FIG. 3: Bone cancer and bone cancer pain study with Compound A. FIG. 3a: Protocol. Bone cancer pain study with Compound A. Dose groups: Vehicle, Zoledronate (100 μg/kg ) positive control, Compound A (100 mg/kg, daily dosing, SC, days 7-21), 10 animals per group Control animals were injected with media (and no tumor cells) in the femur. FIGS. 3b-3d. Left to right: Sham/media +Compound A, Cancer +vehicle, cancer +zoledronate, cancer +Compound A. FIG. 3b: Effects on bone destruction. […] Spontaneous Pain in the form of Flinching was attenuated by Compound Aon day 14 and day 21 with statistical significance, as compared to vehicle. […] Movement evoked pain was attenuated by Compound A on day 13 with statistical significance as compared to vehicle.
FIG. 6. Histology Analysis of Bone Samples in Bone Caner Pain Study. Representative bone sections from the study described in FIG. 3A were subjected to staining with the standard hematoxylin and eosin histological stain to visualize cellular structures in the bone. In FIG. 6, the pitting of the bone is shown and indicated from samples in the study arm with 66.1 cancer cells in the bone and dosed with vehicle control only, which is due to ostelytic activity induced by the presence of the 66.1 cancer cells in the bone.
FIG. 3a sets forth the treatment protocol for the bone cancer pain study with Compound A. Dose groups: Vehicle, Zoledronate (100 μg/kg) positive control, Compound A (100 mg/kg, daily dosing, SC, days 7-21), 10 animals per group. Mice were implanted with breast cancer cells in the femur on day 0 and treated with Compound A on days 7 through 21. On days 0, 7, 14, and 21 radiographic imaging, thermal hyperalgesia, tactile allodynia, movement-evoked and spontaneous pain measurements were taken. Pain measurements were made 6 hours after dosing. Control animals were injected with media (and no tumor cells) in the femur. […] Bone destruction was attenuated by Compound A on day 14 and day 21 as compared to vehicle. The efficacy was similar to that obtained with zoledronate (see, FIG. 3b). […] Spontaneous Pain in the form of Flinching was attenuated by Compound A on day 14 and day 21 with statistical significance, as compared to vehicle (see, FIG. 3d). […] Movement evoked pain was attenuated by Compound A on day 13 with statistical significance as compared to vehicle (see, FIG. 3e).
Compound A was dosed subcutaneously, at a 100 mg/kg dose once a day, in a nanoparticle-sized formulation suitable for subcutaneous dosing and diluted in D5W (sterile 5% dextrose in water). Dosing was initiated 7 days after the femur implantation of the 66.1 tumor cells and continued once a day.
The data in FIG. 6 is based on representative bone sections from the study described in FIG. 3A, which were subjected to staining with the standard histological stain hematoxylin and eosin, in order to visualize cellular structures in the bone. Visualized samples include bone sections from study animals with 66.1 tumor cells injected into bone and dosed with either vehicle control or compound A and also animals with media alone injected into bone and also dosed with compound A. Normal hemapoetic cells of the bone and the 66.1 cancer cells within the bone, as well as bone histomorphology, were visualized by this staining procedure. […] This is due to ostelytic activity induced by the presence of the 66.1 cancer cells in the bone.

[2] = Pharmacokinetic profile in mice; type: in vivo
Description: (§1) FIG. 4. Pharmacokinetics of Compound A. FIG. 4a: Compound A pharmacokinetic profile in mice and rats. FIG. 4b. Single dose pharmacokinetics in the mouse following intravenous (1 mg/kg) and oral doses (5 mg/kg). Plasma concentration values vs. time.

cathepsin S enzyme [3] = biological target: cathepsin S enzyme (Rattus norvegicus, UniProt Q02765); experiment: Cathepsin S enzyme across species: rat; type: biochemical
cathepsin S enzyme (Rattus norvegicus, UniProt Q02765), sequence (Q02765 113-330): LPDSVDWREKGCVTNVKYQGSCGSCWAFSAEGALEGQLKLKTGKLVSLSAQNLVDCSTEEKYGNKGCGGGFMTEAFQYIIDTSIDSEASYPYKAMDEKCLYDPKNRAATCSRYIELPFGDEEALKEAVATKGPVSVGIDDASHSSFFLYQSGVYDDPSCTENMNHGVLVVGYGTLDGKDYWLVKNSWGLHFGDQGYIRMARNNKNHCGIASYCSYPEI

[4] = system: cathepsin S-dependent invariant chain processing; experiment: Cathepsin S-dependent invariant chain processing in Raji B cells; type: cell-based; conditions: Homo sapiens, read-out: inhibition of cathepsin S-dependent invariant chain processing IC50
[5] = Pharmacokinetic profile in rats; type: in vivo
Description: as §1

cathepsin L = cathepsin L (Homo sapiens, UniProt P07711); experiment: Activity-based probe (125-I labeled DMK) assay in HUVEC, cathepsin L; type: cell-based; set-up: endogenous in cells; host or cells: HUVEC
cathepsin L, sequence (P07711 114-333): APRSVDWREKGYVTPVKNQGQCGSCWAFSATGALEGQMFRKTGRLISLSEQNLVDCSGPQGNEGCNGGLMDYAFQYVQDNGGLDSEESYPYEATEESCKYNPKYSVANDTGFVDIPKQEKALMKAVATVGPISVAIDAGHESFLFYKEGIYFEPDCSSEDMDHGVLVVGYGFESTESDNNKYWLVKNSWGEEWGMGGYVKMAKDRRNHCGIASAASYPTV
Description: (§2) FIG. 2. […] An activity-based probe assaying using 125-I labeled DMK reagent to assess the ability of Compound A to inhibit cathepsin L and cathepsin B protease activity in cells. In this assay human umbilical […] endothelial cells (HUVEC) are dosed with the indicated concentrations of Compound A in vitro. They are then incubated with the 125-I labeled activity probe for a short time, a cellular lysate produced, and the proteins analyzed biochemically by SDS PAGE. The gels are then imaged by autoradiography and the inhibition of protease activity, as assessed by the inhibition of activity probe binding, can be detected. FIG. 2b: Compound A inhibition of cathepsin S activity in the spleen in vivo as a function of time after dosing and plasma levels following a 10 mg/kg dose of the agent. […] The accumulation of the lip10 biomarker was tracked in spleen tissue samples taken from the treated animal. Accordingly, FIG. 2b. is based upon an assay which detects the accumulation of a proteolytic substrate of cathepsin S, the p10 fragment of invariant chain shown here as lip10, following dosing of Compound A in mice at 10 mg/kg/3 mice per time points are dosed with Compound A for the indicated times, and the spleens harvested and frozen. The level of lip10, an indicator cathepsin S inhibition is then detected using SDS PAGE and western blotting in lysates produced from the spleens. […]

cathepsin B = cathepsin B (Homo sapiens, UniProt P07858); experiment: Activity-based probe (125-I labeled DMK) assay in HUVEC, cathepsin B; type: cell-based; set-up: endogenous in cells; host or cells: HUVEC
Description: as §2

tumor invasion = experiment: In vitro bioassay for tumor invasiveness; type: cell-based
[6] = system: multiple human cathepsin enzymes; experiment: Cathepsin inhibitory profile on multiple cathepsin enzymes; type: biochemical
Text: FIG. 1. […] Methods are similar to those set forth in the Biological Examples.

cathepsin S [7] = biological target: T1, cathepsin S (Mus musculus, UniProt O70370); experiment: Cathepsin S enzyme across species: mouse; type: biochemical
cathepsin S enzyme [8] = biological target: cathepsin S enzyme (Canis lupus familiaris, UniProt Q8HY81); experiment: Cathepsin S enzyme across species: dog; type: biochemical
cathepsin S enzyme (Canis lupus familiaris, UniProt Q8HY81), sequence (Q8HY81 115-331): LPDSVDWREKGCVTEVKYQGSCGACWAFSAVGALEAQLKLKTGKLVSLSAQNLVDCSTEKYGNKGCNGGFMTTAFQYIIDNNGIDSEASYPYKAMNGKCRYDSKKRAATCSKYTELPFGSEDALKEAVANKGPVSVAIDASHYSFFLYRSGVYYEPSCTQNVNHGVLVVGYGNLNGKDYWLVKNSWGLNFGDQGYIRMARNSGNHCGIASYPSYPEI

cathepsin S [9] = biological target: T1, cathepsin S; experiment: Accumulation of lip10 biomarker in spleen after dosing; type: in vivo; set-up: from tissue; host or cells: mouse spleen (in vivo dosing); conditions: mice, 10 mg/kg
Description: as §2

angiogenesis = experiment: In vitro bioassay for angiogenesis; type: cell-based
[10] = day 14 and day 21, 100 mg/kg, daily, SC, compared to vehicle

- pharmacokinetics [2]: very favorable pharmacokinetics
- IC50 (cathepsin S enzyme [3]): 0.77 nM
- IC50 [4]: < 10 nM
- pharmacokinetics [5]: very favorable pharmacokinetics
- inhibition of cathepsin L activity in endothelial cells, potency (cathepsin L): single digit nanomolar potency
- inhibition of cathepsin B activity in endothelial cells, potency (cathepsin B): single digit nanomolar potency
- cathepsin inhibitory profile on multiple cathepsin enzymes [6]: very high potency and selectivity
- IC50 (cathepsin S [7]): < 0.25 nM
- IC50 (cathepsin S enzyme [8]): 0.25 nM
- activity in vivo as judged by accumulation of a biomarker (lip10) in the spleen (cathepsin S [9]): active in vivo
SMILES: CC[C@H](NC(=O)[C@H](CS(=O)(=O)CC1CC1)N[C@@H](c1ccc(F)cc1)C(F)(F)F)C(=O)C(=O)NC1CC1 [Compound A, (S)—N-cyclopropyl-3-((R)-3-((cyclopropylmethyl)sulfonyl)-2-(((S)-2,2,2-trifluoro-1-(4-fluorophenyl)ethyl)amino)propanamido)-2-oxopentanamide]
- bone pitting (histology, hematoxylin and eosin) ([1]; 100 mg/kg SC once a day, nanoparticle-sized formulation in D5W): reduced
- effect after drug washout ([1]; after 7 days of drug washout): without any significant effect
- movement evoked pain ([1]; day 13, 100 mg/kg, daily, SC, compared to vehicle): attenuated
- bone destruction [1, 10]: attenuated
- spontaneous pain in the form of Flinching [1, 10]: attenuated
- spontaneous pain in the form of Guarding ([1]; day 14 and day 21, 100 mg/kg, daily, SC, compared to vehicle or zoledronate): attenuated
- body weight ([1]; day 21, 100 mg/kg, daily, SC, days 7-21, compared to vehicle): retained weight as compared to vehicle
- tumor invasion (tumor invasion): inhibited
- angiogenesis (angiogenesis): inhibited

Source: patent US8680152B2, “Cathepsin inhibitors for the treatment of bone cancer and bone cancer pain” (Virobay, Inc., priority 2011, dated 2014)
